Source: patent publication US10221163B2 (priority 2015, dated 2019)
Read-outs that look alike come from different tables or passages of the source.

How the values were obtained:
[1] = biological target: VIM-1 (Pseudomonas aeruginosa (strain ATCC 15692 / DSM 22644 / CIP 104116 / JCM 14847 / LMG 12228 / 1C / PRS 101 / PAO1), UniProt A0A0F7KYQ8); experiment: biochemical; conditions: CCF2-FA substrate, 30 pM enzyme, 2 hours at 25° C.
Summary of the method: (§1)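 Two-hour, 25° C incubation of enzyme with inhibitor and CCF2-FA (7-hydroxycoumarin–cephalosporin–fluorescein). Fluorescence read-out; IC50 via 4-parameter fit.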

[2] = system: Pseudomonas aeruginosa MB9798 vs MB9799; conditions: ratio MITC95 PA_9798/MITC95 PA_9799
Summary of the method: (§2)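 PAO1 pair, broth microdilution; fixed β-lactam (imipenem/ceftazidime) at ~CLSI breakpoint + fixed class A/C BLI for AmpC; serial MBLi titration; endpoint = MBLi conc. restoring susceptibility; MB9798:MB9799 ratio = efflux liability.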

[3] = system: Pseudomonas aeruginosa efflux+ (MB9798), IMP-1; type: cell-based; conditions: concentration restoring susceptibility to imipenem at 2 μg/mL in the presence of a class A, C, D serine β-lactamase inhibitor closely related to relebactam
Summary of the method: as §2

[4] = system: Escherichia coli expressing NDM-1 (CLB30005, CLB30016); type: cell-based; conditions: NDM-1 strain, with imipenem 1 μg/ml, 95% inhibition of growth
Summary of the method: (§3)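 Clinical strains grown overnight on blood agar at 35°C, colonies suspended in saline, diluted 1:100 into 1.1×CAMHB. Test compound titrated with imipenem at 1 μg/ml; incubated 22–24 h at 35°C, growth read by absorbance.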

[5] = system: Serratia marcescens expressing IMP-1 (CL5741); type: cell-based; conditions: IMP-1 strain CL5741, with imipenem 1 μg/ml, 95% inhibition of growth
Summary of the method: as §3

[6] = system: Klebsiella pneumoniae expressing VIM-1 (IHMA599644); type: cell-based; conditions: VIM-1 strain IHMA599644, with imipenem 1 μg/ml, 95% inhibition of growth
Summary of the method: as §3

[7] = system: Pseudomonas aeruginosa efflux− (MB9799), IMP-1; type: cell-based; conditions: concentration restoring susceptibility to imipenem at 2 μg/mL in the presence of a class A, C, D serine β-lactamase inhibitor closely related to relebactam
Summary of the method: as §2

[8] = biological target: NDM-1 (Klebsiella pneumoniae, UniProt C7C422); experiment: biochemical; type: biochemical; conditions: fluorescence assay, CCF2-FA substrate, 1 pM enzyme, 2 hours at 25° C.; read-out: NDM-1 IC50
Summary of the method: as §1

[9] = biological target: IMP-1 (Serratia marcescens, UniProt P52699); experiment: biochemical; type: biochemical; conditions: fluorescence assay, CCF2-FA substrate, 2 pM enzyme, 2 hours at 25° C.; read-out: IMP-1 IC50
Summary of the method: as §1

[10] = fluorescence assay, read-out: VIM-1 IC50

NDM-1, sequence (C7C422 whole entry, looked up, species assumed): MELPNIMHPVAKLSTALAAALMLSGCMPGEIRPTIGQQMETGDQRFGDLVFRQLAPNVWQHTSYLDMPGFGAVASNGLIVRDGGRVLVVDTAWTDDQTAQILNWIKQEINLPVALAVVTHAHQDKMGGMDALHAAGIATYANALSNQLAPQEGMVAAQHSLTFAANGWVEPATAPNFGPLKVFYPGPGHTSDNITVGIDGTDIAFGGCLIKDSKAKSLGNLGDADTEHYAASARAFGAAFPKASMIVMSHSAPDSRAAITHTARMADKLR
IMP-1, sequence (P52699 whole entry, looked up, species assumed): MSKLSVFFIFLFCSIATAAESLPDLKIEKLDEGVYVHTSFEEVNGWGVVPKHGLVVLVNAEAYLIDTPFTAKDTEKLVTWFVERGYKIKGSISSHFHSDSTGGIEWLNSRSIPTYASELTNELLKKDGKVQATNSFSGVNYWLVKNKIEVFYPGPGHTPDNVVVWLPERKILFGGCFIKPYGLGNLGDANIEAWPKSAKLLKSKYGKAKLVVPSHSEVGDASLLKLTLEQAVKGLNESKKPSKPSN

Row | SMILES | IC50 [1, 10] [nM] | Efflux ratio [2] | P. aeruginosa expressing IMP-1, efflux + (MB9798) MITC95 [3] [µM] | Escherichia coli MITC95 [4] [µM] | Serratia marcescens MITC95 [5] [µM] | Klebsiella pneumoniae MITC95 [6] [µM] | P. aeruginosa expressing IMP-1, efflux − (MB9799) MITC95 [7] [µM] | IC50 [8] [nM] | IC50 [9] [nM] | IC50 ([1]; VIM-1 IC50, fluorescence assay) [nM]
1 | CNc1nc2c(-c3ccc(S(=O)(=O)N[C@H]4CCNC4)c(S(N)(=O)=O)c3-c3nn[nH]n3)cccc2[nH]1 [Example 295, (S)-4-(2-(methylamino)-1H-benzo[d]imidazol-4-yl)-N1-(pyrrolidin-3-yl)-3-(2H-tetrazol-5-yl)benzene-1,2-disulfonamide] | 0.172 | 1.00 | 0.7813 | 0.7813 | 0.7813 | 1.563 | 0.7813 | 0.0561 | 0.775 | –
2 | N[C@H](CO)CNS(=O)(=O)c1ccc(-c2cccc3[nH]cnc23)c(-c2nn[nH]n2)c1S(N)(=O)=O [Example 296, (S)—N^1-(2-amino-3-hydroxypropyl)-4-(1H-benzo[d]imidazol-4-yl)-3-(2H-tetrazol-5-yl)benzene-1,2-disulfonamide] | 0.184 | 1.00 | 0.7813 | 1.563 | 1.563 | 3.125 | 0.7813 | 0.0409 | 0.198 | –
3 | Nc1ccc(-c2ccc(S(=O)(=O)NC[C@H](N)CO)c(S(N)(=O)=O)c2-c2nn[nH]n2)cn1 [Example 297, (S)—N^1-(2-amino-3-hydroxypropyl)-4-(6-aminopyridin-3-yl)-3-(2H -tetrazol-5-yl) benzene-1,2-disulfonamide] | 0.423 | 1.00 | 0.7813 | 0.3906 | 0.7813 | 1.563 | 0.7813 | 0.331 | 0.569 | –
4 | NC[C@@H](O)CNS(=O)(=O)c1ccc(-c2cccc3[nH]c(N)nc23)c(-c2nn[nH]n2)c1S(N)(=O)=O [Example 298, (R)-4-(2-amino-1H-benzo[d]imidazol-4-yl)-N1-(3-amino-2-hydroxypropyl)-3-(2H-tetrazol-5-yl)-benzene-1,2-disulfonamide] | 0.135 | 0.69 | 0.3555 | 0.2786 | 0.4531 | 1.031 | 0.5156 | 0.0573 | 0.671 | –
5 | NCc1nc2c(-c3ccc(S(=O)(=O)NC[C@H](O)CN)c(S(N)(=O)=O)c3-c3nn[nH]n3)cccc2[nH]1 [Example 299, (R)—N1-(3-amino-2-hydroxypropyl)-4-(2-(aminomethyl)-1H-benzo[d]imidazol-4-yl)-3-(2H-tetrazol-5-yl)benzene-1,2-disulfonamide] | – | 1.00 | 0.7813 | 0.7813 | 1.563 | 1.563 | 0.7813 | 0.265 | 2.65 | 0.154
6 | NCc1nc2c(-c3ccc(S(=O)(=O)NC[C@H](O)CN)c(S(N)(=O)=O)c3-c3nn[nH]n3)cccc2s1 [Example 300, (R)—N1-(3-amino-2-hydroxypropyl)-4-(2-(aminomethyl)benzo[d]thiazol-4-yl)-3-(2H-tetrazol-5-yl)benzene-1,2-disulfonamide] | – | 1.00 | 0.7813 | 1.563 | 1.563 | 1.563 | 0.7813 | 0.0703 | 0.318 | 0.0678
7 | NC[C@@H](O)CNS(=O)(=O)c1ccc(-c2cccc3[nH]cnc23)c(-c2nn[nH]n2)c1S(N)(=O)=O [Example 301, (R)-4-(1H-benzo[d]imidazol-4-yl)-N1-(3-amino-2-hydroxypropyl)-3-(2H-tetrazol-5-yl)-benzene-1,2-disulfonamide] | 0.0528 | 1.00 | 0.7813 | 1.563 | 0.3906 | 3.125 | 0.7813 | 0.0163 | 0.129 | –
8 | Cn1c(N)nc2c(-c3ccc(S(=O)(=O)NC[C@H](O)CN)c(S(N)(=O)=O)c3-c3nn[nH]n3)cccc21 [Example 302, (R)-4-(2-amino-1-methyl-1H-benzo[d]imidazol-4-yl)-N1-(3-amino-2-hydroxypropyl)-3-(2H-tetrazol-5-yl)benzene-1,2-disulfonamide] | – | 1.00 | 0.7813 | 0.7813 | 0.7813 | 1.563 | 0.7813 | 0.0449 | 0.341 | 0.141
9 | NC[C@@H](O)CNS(=O)(=O)c1ccc(-c2ccc(N)nc2)c(-c2nn[nH]n2)c1S(N)(=O)=O [Example 303, (R)-N1-(3-amino-2-hydroxypropyl)-4-(6-aminopyridin-3-yl)-3-(2H-tetrazol-5-yl)benzene-1,2-disulfonamide] | – | 1.00 | 0.7813 | 0.2197 | 0.5859 | 1.953 | 0.7813 | 0.255 | 0.536 | 0.169
10 | NC[C@H](O)CNS(=O)(=O)c1ccc(-c2cccc3[nH]c(N)nc23)c(-c2nn[nH]n2)c1S(N)(=O)=O [Example 304, (S)-4-(2-amino-1H-benzo[d]imidazol-4-yl)-N1-(3-amino-2-hydroxypropyl)-3-(2H-tetrazol-5-yl)-benzene-1,2-disulfonamide] | 0.208 | 0.50 | 0.3906 | 0.3906 | 0.7813 | 1.563 | 0.7813 | 0.0608 | 0.617 | –
11 | NCc1nc2c(-c3ccc(S(=O)(=O)NC[C@@H](O)CN)c(S(N)(=O)=O)c3-c3nn[nH]n3)cccc2[nH]1 [Example 305, (S)—N1-(3-amino-2-hydroxypropyl)-4-(2-(aminomethyl)-1H-benzo[d]imidazole-4-yl)-3-(2H-tetrazol-5-yl)benzene-1,2-disulfonamide] | – | 1.00 | 0.7813 | 1.172 | 1.172 | 1.563 | 0.7813 | 0.136 | 2.06 | 0.175
12 | NCc1nc2c(-c3ccc(S(=O)(=O)NC[C@@H](O)CN)c(S(N)(=O)=O)c3-c3nn[nH]n3)cccc2s1 [Example 306, (S)—N1-(3-amino-2-hydroxypropyl)-4-(2-(aminomethyl)benzo[d]thiazol-4-yl)-(2H-tetrazol-5-yl)benzene-1,2-disulfonamide] | – | 1.00 | 0.7813 | 0.7813 | 0.7813 | 1.563 | 0.7813 | 0.0587 | 0.293 | 0.0564
